From patent US20180170942A1, “POLYCYCLIC DERIVATIVES TARGETING RAL GTPASES AND THEIR THERAPEUTICAL APPLICATIONS” (NANTBIO, INC., priority 2015, published 2018)

System: H2122 human lung cancer cells
Experiment: In vitro growth inhibition of human cancer cells under anchorage-independent conditions in soft agar (colony count)
Format: cell-based
Conditions: NCI-H2122, 336 h, 50% reduction in colony number vs DMSO controls, two weeks incubation, MTT stain
Experimental: In vitro growth inhibition of human cancer cells: Growth inhibition of human lung cancer cells by the compounds was measured under anchorage-independent conditions in soft agar. H2122 human lung cancer cells were seeded into 6-well plates (coated with a base layer made of 2 ml of 1% low-melting-point agarose) at 15,000 cells per well in 3 ml of 0.4% low-melting-point agarose containing various concentration of drug. Two weeks after incubation, cells were stained with 1 mg/ml MTT and colonies were counted under a microscope. […] Data are analyzed using Excel (Microsoft), and IC50 values are determined using Prism (Graphpad). The results of the in vitro H2122 growth inhibition activity of the representative compounds of the present invention are shown in the following Table: […]

Row | SMILES | IC50 [nM]
1 | CCCc1n[nH]c2c1C(c1cc(Cl)cc(Cl)c1O)C(C#N)=C(N)O2 (stereo not drawn) [Compound 1] | 2210
2 | CCCc1n[nH]c2c1C(c1cc(OC)ccc1OC)C(C#N)=C(N)O2 (stereo not drawn) [Compound 2] | 3560
3 | CCCc1n[nH]c2c1C(c1ccc3ccccc3c1)C(C#N)=C(N)O2 (stereo not drawn) [Compound 3] | 3720
4 | CCCc1nn(C)c2c1C(c1cc(Cl)cc(Cl)c1O)C(C#N)=C(N)O2 (stereo not drawn) [Compound 4] | 1590
5 | CCCc1nn(C)c2c1C(c1cc(OC)ccc1OC)C(C#N)=C(N)O2 (stereo not drawn) [Compound 5] | 3860
6 | Cc1n[nH]c2c1C(c1ccc(OC(F)(F)F)cc1)C(C#N)=C(N)O2 (stereo not drawn) [Compound 7] | 3210
7 | COc1cc(OC)c(C2C(C#N)=C(N)Oc3[nH]nc(C)c32)c(OC)c1 (stereo not drawn) [Compound 8] | 3280
8 | Cc1n[nH]c2c1C(c1ccc(C(F)(F)F)cc1)C(C#N)=C(N)O2 (stereo not drawn) [Compound 9] | 5050
9 | Cc1n[nH]c2c1C(c1ccc(-n3ccnc3)cc1)C(C#N)=C(N)O2 (stereo not drawn) [Compound 10] | 900
10 | COc1cccc(OC)c1C1C(C#N)=C(N)Oc2c1c(C)nn2C (stereo not drawn) [Compound 11] | 2190
11 | Cc1nn(C)c2c1C(c1ccc(-c3ccccc3)cc1)C(C#N)=C(N)O2 (stereo not drawn) [Compound 12] | 4000
12 | COc1cc(C2C(C#N)=C(N)Oc3c2c(C)nn3C)ccc1C(F)(F)F (stereo not drawn) [Compound 13] | 2990
13 | Cc1nn(C)c2c1C(c1cccc(-c3cncnc3)c1)C(C#N)=C(N)O2 (stereo not drawn) [Compound 14] | 5050
14 | COc1cc(C(F)(F)F)ccc1C1C(C#N)=C(N)Oc2c1c(C)nn2C (stereo not drawn) [Compound 15] | 1710
15 | Cc1nn(C)c2c1C(c1ccc(-n3ccnc3C)cc1)C(C#N)=C(N)O2 (stereo not drawn) [Compound 16] | 1020
16 | Cn1nc(C(C)(C)C)c2c1OC(N)=C(C#N)C2c1ccc(-n2ccnc2)cc1 (stereo not drawn) [Compound 17] | 1350
17 | Cn1nc(C2CCCC2)c2c1OC(N)=C(C#N)C2c1ccc(-n2ccnc2)cc1 (stereo not drawn) [Compound 18] | 1280
18 | Cn1nc(-c2cc3ccccc3o2)c2c1OC(N)=C(C#N)C2c1ccc(-n2ccnc2)cc1 (stereo not drawn) [Compound 20] | 490
19 | Cn1nc(Cc2ccccc2)c2c1OC(N)=C(C#N)C2c1ccc(-n2ccnc2)cc1 (stereo not drawn) [Compound 21] | 890
20 | Cn1nc(-c2ccccn2)c2c1OC(N)=C(C#N)C2c1ccc(-n2ccnc2)cc1 (stereo not drawn) [Compound 22] | 2040
21 | Cn1nc(-c2cnccn2)c2c1OC(N)=C(C#N)C2c1ccc(-n2ccnc2)cc1 (stereo not drawn) [Compound 23] | 1080
22 | Cc1nn(C)c2c1C(c1ccc(-c3ncccn3)cc1)C(C#N)=C(N)O2 (stereo not drawn) [Compound 24] | 6130
23 | CC(C)c1nn(C)c2c1C(c1ccc(-n3ccnc3)cc1)C(C#N)=C(N)O2 (stereo not drawn) [Compound 25] | 1070
24 | CC(C)c1nn(C)c2c1C(c1ccc(C(F)(F)F)cc1)C(C#N)=C(N)O2 (stereo not drawn) [Compound 26] | 2960
25 | Cc1nn(C)c2c1C(c1ccc(-n3cnc4ccccc43)cc1)C(C#N)=C(N)O2 (stereo not drawn) [Compound 27] | 840

Further lines, results first:

Row | IC50 [nM] | SMILES
26 | 3420 | Cn1nc(-c2cc3ccccc3o2)c2c1OC(N)=C(C#N)C2c1ccc(C(F)(F)F)cc1 (stereo not drawn) [Compound 28]
27 | 3910 | Cn1nc(-c2cc3ccccc3o2)c2c1OC(N)=C(C#N)C2c1ccc(OC(F)(F)F)cc1 (stereo not drawn) [Compound 29]
28 | 1710 | Cn1nc(-c2cc3ccccc3o2)c2c1OC(N)=C(C#N)C2c1cc(Cl)cc(Cl)c1O (stereo not drawn) [Compound 30]
29 | 6210 | COc1ccc(OC)c(C2C(C#N)=C(N)Oc3c2c(-c2cc4ccccc4o2)nn3C)c1 (stereo not drawn) [Compound 31]
30 | 2910 | Cc1nnc(-c2ccc(C3C(C#N)=C(N)Oc4c3c(C)nn4C)cc2)o1 (stereo not drawn) [Compound 32]
31 | 2490 | Cc1nn(C)c2c1C(c1ccc(-n3cncn3)cc1)C(C#N)=C(N)O2 (stereo not drawn) [Compound 33]
32 | > 10000 | Cc1nn(C)c2c1C(c1ccc(N(C)C)cc1)C(C#N)=C(N)O2 (stereo not drawn) [Compound 34]
33 | 2780 | CC(=O)Nc1ccc(C2C(C#N)=C(N)Oc3c2c(C)nn3C)cc1 (stereo not drawn) [Compound 35]
34 | 8390 | Cc1nn(C)c2c1C(c1ccc(N3CCCC3)cc1)C(C#N)=C(N)O2 (stereo not drawn) [Compound 36]
35 | 6020 | Cc1nn(C)c2c1C(c1ccc(-n3cccc3)cc1)C(C#N)=C(N)O2 (stereo not drawn) [Compound 37]
36 | 5750 | Cc1nn(C)c2c1C(c1ccc(-n3cccn3)cc1)C(C#N)=C(N)O2 (stereo not drawn) [Compound 38]
37 | 5110 | Cc1cn(-c2ccc(C3C(C#N)=C(N)Oc4c3c(C)nn4C)cc2)cn1 (stereo not drawn) [Compound 39]
38 | 1590 | Cc1nccn1-c1ccc(C2C(C#N)=C(N)Oc3c2c(-c2cc4ccccc4o2)nn3C)cc1 (stereo not drawn) [Compound 40]
39 | 1820 | Cn1nc(-c2n[nH]c3ccccc23)c2c1OC(N)=C(C#N)C2c1ccc(-n2ccnc2)cc1 (stereo not drawn) [Compound 41]
40 | 1120 | Cc1nn(C(C)(C)C)c2c1C(c1ccc(-n3ccnc3)cc1)C(C#N)=C(N)O2 (stereo not drawn) [Compound 42]
41 | 700 | Cc1nn(-c2ccccc2)c2c1C(c1ccc(-n3ccnc3)cc1)C(C#N)=C(N)O2 (stereo not drawn) [Compound 43]
42 | 980 | Cc1nn(-c2ccc(F)cc2)c2c1C(c1ccc(-n3ccnc3)cc1)C(C#N)=C(N)O2 (stereo not drawn) [Compound 44]
43 | 1620 | COc1ccc(-n2nc(C)c3c2OC(N)=C(C#N)C3c2ccc(-n3ccnc3)cc2)cc1 (stereo not drawn) [Compound 45]
44 | 2080 | Cc1nn(-c2ccncc2)c2c1C(c1ccc(-n3ccnc3)cc1)C(C#N)=C(N)O2 (stereo not drawn) [Compound 46]
45 | 1320 | COc1ccc(-c2n[nH]c3c2C(c2ccc(-n4ccnc4)cc2)C(C#N)=C(N)O3)cc1 (stereo not drawn) [Compound 47]
46 | 1320 | COc1ccc(-c2nn(C)c3c2C(c2ccc(-n4ccnc4)cc2)C(C#N)=C(N)O3)cc1 (stereo not drawn) [Compound 48]
47 | 3150 | COc1ccc(-c2nn(-c3ccccc3)c3c2C(c2ccc(-n4ccnc4)cc2)C(C#N)=C(N)O3)cc1 (stereo not drawn) [Compound 49]

System: MiaPaCa2 pancreatic cell line
Experiment: not given
Conditions: inhibitory effects were modest; cited from earlier work

Row | SMILES | inhibition of in vitro growth and survival
48 | COC(=O)[C@H](CC(C)C)NC(=O)N1CCN(Cc2nc[nH]c2C)C(=O)[C@@H]1Cc1ccccc1 [GGTI-2417] | inhibit the in vitro growth and survival
